Assay [1] has as its target T1, RORα (Mus musculus, UniProt P51448).
T1 construct: mouse RORα (amino acids 142 to end); expressed in transfected cells
Description: S2 cell RORα luciferase reporter. Format: cell-based. The conditions noted are these: 10 μM, FIG. 1c. The source says: (§1) The Drosophila S2 cell line was originally purchased from Invitrogen and was maintained in Schneider's medium supplemented with 10% heat-inactivated bovine fetal calf serum and antibiotics (Invitrogen). Gal4 DNA binding domain (G4 DBD) corresponding to amino acids 1 through 147 of Gal4 protein was PCR amplified to make a fusion construct with mouse RORγt (amino acids 79 to the carboxyl terminal end) lacking its DNA binding domain. The resulting chimeric gene was subcloned into the copper inducible pMT/V5-His A vector (Invitrogen). In a similar manner, Gal4 fusion constructs were prepared with mouse RORα (amino acids 142 to end) or Drosophila DHR3 (amino acids 120 to end). Coding sequences for firefly luciferase (Promega) were PCR amplified and subcloned into pUAST vector containing Gal4 binding enhancer sequences. Renilla luciferase construct under the polIII promoter was obtained from Dr. Dasgupta's laboratory (NYU medical center). In order to generate stable cell lines, cells were co-transfected with pMT-G4 DBD-RORγt, pMT-G4 DBD-RORα, pMT-G4 DBD-DHR3, or pMT-G4 DBDVP16 and pHygro plasmids (Invitrogen) and screened for resistant colonies in the presence of hygromycin (0.3 mg/mL). […]
Background: Reporter assays use an easily measured gene product as a stand-in for the process of interest.

The target of assay [2] is T2, DHR3 (Drosophila melanogaster, UniProt P31396).
T2 construct: Drosophila DHR3 (amino acids 120 to end); expressed in transfected cells
T2 sequence (P31396 120-487 limits assumed): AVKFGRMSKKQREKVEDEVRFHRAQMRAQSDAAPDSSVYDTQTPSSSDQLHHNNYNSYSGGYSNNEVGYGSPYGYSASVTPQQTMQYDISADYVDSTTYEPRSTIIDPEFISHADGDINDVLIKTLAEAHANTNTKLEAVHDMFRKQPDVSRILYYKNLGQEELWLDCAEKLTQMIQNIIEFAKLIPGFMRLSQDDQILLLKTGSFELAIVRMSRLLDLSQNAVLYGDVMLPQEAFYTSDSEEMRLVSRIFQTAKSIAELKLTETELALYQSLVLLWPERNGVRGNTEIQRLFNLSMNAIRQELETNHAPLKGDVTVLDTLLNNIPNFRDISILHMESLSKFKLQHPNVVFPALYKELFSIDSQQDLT
Description: S2 cell DHR3 luciferase reporter. It counts as cell-based. To be noted: 10 μM, FIG. 1c.
Excerpt: as §1

In assay [3] the test system is Th17 cell transfer-mediated EAE. Nature of the assay: Th17 cell transfer-mediated (passive) EAE. It counts as in vivo, mouse. The conditions noted are these: daily from day 2, RAG-2-deficient mice.
In assay [4] the target is T3, RORγt (Mus musculus, UniProt P51450).
T3 construct: expressed in transfected cells; host or cells: mouse naive CD4+ T cells, retroviral MIGr vector
T3 sequence (P51450 other isoform, or with tags, fused parts or gaps): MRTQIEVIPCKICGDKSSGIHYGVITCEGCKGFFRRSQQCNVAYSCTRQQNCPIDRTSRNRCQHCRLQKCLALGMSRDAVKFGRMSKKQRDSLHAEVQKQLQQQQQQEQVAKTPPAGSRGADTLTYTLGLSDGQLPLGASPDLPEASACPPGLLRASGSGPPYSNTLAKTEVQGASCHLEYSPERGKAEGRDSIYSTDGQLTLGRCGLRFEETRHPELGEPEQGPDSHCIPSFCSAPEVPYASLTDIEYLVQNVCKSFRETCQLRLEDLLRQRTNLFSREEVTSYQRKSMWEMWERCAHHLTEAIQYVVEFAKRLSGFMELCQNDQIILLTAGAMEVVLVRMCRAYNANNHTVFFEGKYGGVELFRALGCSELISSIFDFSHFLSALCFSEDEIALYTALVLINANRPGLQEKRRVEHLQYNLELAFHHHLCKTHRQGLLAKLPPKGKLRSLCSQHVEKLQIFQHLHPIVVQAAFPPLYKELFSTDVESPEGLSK
It counts as cell-based. The procedure:
Naive CD25^− CD62L^+CD44^low/int cells were sorted from RORγt^fl/fl mice and transduced with control-IRES-GFP (WT) or CRE-IRES-GFP (KO) retrovirus. […] FACS-sorted naive T cells were transduced with retroviral vectors encoding murine RORα-IRES-GFP or RORγt-IRES-GFP on Day 1 (16 h after TCR stimulation) and GFP expressing cells were gated for analysis on Day 5. […] Lymphocytes were isolated on day 21 after disease induction. The cells were stimulated for 4 h with PMA/Ionomycin and stained for surface markers and intracellular cytokines.
T cells were purified from lymph nodes and spleens of six to eight weeks old B6 mice (Taconic), by magnetically depleting B220^+ cells (autoMACS, Miltenyi), and then sorting CD8^−DAPI^−CD19^−CD4^+CD25^−CD62L^+CD44^low/Int naive T cells on a FACSAria (BD). […] For T cell polarization, 200 μl cells were seeded at 0.4×10^5 cells per mL in 96-well plates pre-coated with anti-CD3ε (5 μg/mL) and anti-CD28 (10 μg/mL). Cells were cultured for 4-5 days in Th17 (TGF-β (0.3 ng/mL), IL-6 (20 ng/mL), and anti-IFN-γ and anti-IL-4 (2 ng/mL)), Th1 (IL-12 (10 ng/mL), IL-2 (10 U/mL) and anti-IL-4 (2 ng/mL)), or Th2 (IL-4 (10 ng/mL), and anti-P35 and anti-IFN-γ 2 ng/mL)) conditions. For ectopic expression ROR proteins, native CD4^+ T cells were infected with retroviral MIGr-control, MIGr-RORα or MIGr-RORγ 24 hrs after activation, and cultured without exogenous cytokines or only with IL-6. At day 1, compounds dissolved in DMSO were added. For cytokine analysis, cells were incubated for 5 hours with phorbol 12-myristate 13-acetate (50 ng/mL; Sigma), ionomycin (500 ng/mL; Sigma) and GolgiStop (BD). Intracellular cytokine staining was performed according to the manufacturer's protocol (Cytofix/Cytoperm buffer set from BD) with alexa647-conjugated anti-IL-17a (eBioscience), and PE-conjugated anti-IFN-γ or anti-IL-4 (eBioscience). An LSR II (BD Biosciences) and FlowJo software (Tree Star) were used for flow cytometry and analysis. Dead cells were excluded using the Live/Dead fixable aqua dead cell stain kit (Invitrogen).

Assay [5] addresses T4, VP16 (Human herpesvirus 1, UniProt P06492).
T4 construct: herpes simplex virus VP16 (amino acids 413 to end); expressed in transfected cells
Nature of the assay: S2 cell VP16 luciferase reporter. The conditions noted are these: 10 μM, FIG. 1c. It counts as cell-based, herpes simplex virus.
Excerpt: as §1

The structures appear in SMILES notation.

T4 sequence (P06492 413-490): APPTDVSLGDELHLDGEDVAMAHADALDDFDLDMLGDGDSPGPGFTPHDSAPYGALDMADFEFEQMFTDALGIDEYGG
T1 sequence (P51448 142-523 limits assumed): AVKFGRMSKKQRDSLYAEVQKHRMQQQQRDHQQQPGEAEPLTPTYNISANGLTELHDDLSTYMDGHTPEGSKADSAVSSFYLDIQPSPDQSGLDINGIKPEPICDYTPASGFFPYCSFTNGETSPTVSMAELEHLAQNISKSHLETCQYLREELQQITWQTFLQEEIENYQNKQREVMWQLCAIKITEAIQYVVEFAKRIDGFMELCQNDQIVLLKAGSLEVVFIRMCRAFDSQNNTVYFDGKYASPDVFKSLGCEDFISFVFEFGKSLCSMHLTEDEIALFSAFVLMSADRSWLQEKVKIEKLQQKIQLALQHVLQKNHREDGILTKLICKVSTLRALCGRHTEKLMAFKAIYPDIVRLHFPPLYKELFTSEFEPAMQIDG

Take `C[C@H]1O[C@@H](O[C@H]2[C@@H](O)C[C@H](O[C@H]3[C@@H](O)C[C@H](O[C@H]4CC[C@@]5(C)[C@H](CC[C@@H]6[C@@H]5C[C@@H](O)[C@]5(C)[C@@H](C7=CC(=O)OC7)CC[C@]65O)C4)O[C@@H]3C)O[C@@H]2C)C[C@H](O)[C@@H]1O` [Digoxin]: in assay [1], the “effect on transcriptional activity of RORα” value is recorded as “no effect”. Also, the “effect on transcriptional activity of DHR3” value in assay [2] was “no effect”. In assay [3], the “onset and severity of Th17 cell transfer-mediated EAE” value is “delayed onset and reduced severity”. In addition, the “RORγt- versus RORα-mediated induction of IL-17a” value in assay [4] is recorded as “suppressed RORγt—but not RORα-mediated induction of IL-17a”. Besides, the “effect on transcriptional activity of VP16” value in assay [5] is reported as “no effect”.
